According to patent publication US9512107B2, “Therapeutically active compositions and their methods of use” (Agios Pharmaceuticals, Inc., priority 2012, dated 2016):
Residue numbers refer to the chain shown, from its start. pIC50: −log10 of the molar value.

What was measured:
[1] = molecular target: T1, IDH2 R172K (Homo sapiens, UniProt P48735, R172K); experiment: IDH2 R172K enzymatic assay (NADPH cofactor depletion, diaphorase/resazurin readout); format: biochemical; conditions: read-out: Enz R172K
T1 sequence (P48735 40-452 R172K): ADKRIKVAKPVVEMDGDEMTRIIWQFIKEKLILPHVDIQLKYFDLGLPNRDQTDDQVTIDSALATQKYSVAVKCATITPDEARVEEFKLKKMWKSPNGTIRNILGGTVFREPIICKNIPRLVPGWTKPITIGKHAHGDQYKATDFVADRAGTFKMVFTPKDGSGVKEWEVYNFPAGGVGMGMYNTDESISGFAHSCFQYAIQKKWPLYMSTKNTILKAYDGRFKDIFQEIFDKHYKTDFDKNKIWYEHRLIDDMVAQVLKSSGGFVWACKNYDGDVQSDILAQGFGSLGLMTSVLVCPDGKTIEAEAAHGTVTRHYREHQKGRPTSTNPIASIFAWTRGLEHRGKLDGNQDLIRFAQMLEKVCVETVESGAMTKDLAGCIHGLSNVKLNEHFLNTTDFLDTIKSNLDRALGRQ
Method in brief: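 Test compounds are incubated with the mutant enzyme for one hour at ambient temperature. A substrate mix of 50 μM NADPH plus 6.3 mM α-KG initiates turnover, which proceeds for one hour. Diaphorase and resazurin then halt the reaction by depleting the cofactor and convert the remaining NADPH into a fluorescent signal.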

[2] = molecular target: T2, IDH2 R140Q (Homo sapiens, UniProt P48735, R140Q); experiment: IDH2 R140Q enzymatic assay (cofactor depletion, similar format); format: biochemical; conditions: read-out: Enz R140Q
T2 sequence (P48735 40-452 R140Q): T1 sequence (P48735 40-452 R172K) with R101Q, K133R

[3] = system: U87MG pLVX-IDH2 R140Q-neo cells; experiment: U87MG pLVX-IDH2 R140Q-neo cell based assay, 2-HG in media by LC-MS at 48 hours; conditions: Homo sapiens, U-87 MG
Method in brief: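 U87MG cells stably expressing IDH2 R140Q were seeded overnight, then exposed to compound at 0.2% final DMSO at 37 °C, 5% CO2. 2-HG in the medium was quantified by LC-MS at 48 h. Growth inhibition was read by CellTiter-Glo luminescence at 72 h.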

Row | SMILES | pIC50 [1] | pIC50 [2] | pIC50 [3]
1 | CC(C)Nc1nc(Nc2cccnc2)nc(-c2ccccc2)n1 [Compound 154] | 5.00 to 6.00 | > 7.00 | 6.00 to 7.00
2 | Fc1ccc(Nc2nc(NC3CCC3)nc(-c3ccccn3)n2)cn1 [Compound 345, N^2-cyclobutyl-N^4-(6-fluoropyridin-3-yl)-6-(pyridin-2-yl)-1,3,5-triazine-2,4-diamine] | 6.00 to 7.00 | 6.00 to 7.00 | 6.00 to 7.00
3 | CC(C)Nc1nc(Nc2ccccc2)nc(-c2ccn[nH]2)n1 [Compound 148] | 5.00 to 6.00 | 6.00 to 7.00 | 6.00 to 7.00
4 | COCC(C)Nc1nc(Nc2ccccc2)nc(-c2ccccc2)n1 (stereo not drawn) [Compound 269, N^2-(1-methoxypropan-2-yl)-N^4,6-diphenyl-1,3,5-triazine-2,4-diamine] | 6.00 to 7.00 | > 7.00 | > 7.00
5 | CC(C)Nc1nc(Nc2cccc(S(C)(=O)=O)c2)nc(-c2cc(Cl)cc(Cl)n2)n1 [Compound 483, 6-(4,6-dichloropyridin-2-yl)-N2-isopropyl-N4-(3-(methylsulfonyl)phenyl)-1,3,5-triazine-2,4-diamine] | 5.00 to 6.00 | 6.00 to 7.00 | 6.00 to 7.00
6 | CC(C)Nc1nc(Nc2cccc(S(=O)(=O)NCC(F)(F)F)c2)nc(-c2cccc(C(F)(F)F)n2)n1 [Compound 519] | 6.00 to 7.00 | 6.00 to 7.00 | > 7.00
7 | FC(F)(F)c1cc(Nc2nc(NC3COC3)nc(-c3ccccn3)n2)ccn1 [Compound 336, N^2-(oxetan-3-yl)-6-(pyridin-2-yl)-N^4-(2-(trifluoromethyl)pyridin-4-yl)-1,3,5-triazine-2,4-diamine] | 6.00 to 7.00 | 6.00 to 7.00 | > 7.00
8 | CC(C)(C)Nc1nc(Nc2ccncc2)nc(-c2ccccc2)n1 [Compound 189, N^2-tert-butyl-6-phenyl-N^4-(pyridin-4-yl)-1,3,5-triazine-2,4-diamine] | 5.00 to 6.00 | > 7.00 | 6.00 to 7.00
9 | CC(C)Nc1nc(Nc2cncc(C(F)(F)F)c2)nc(-c2cccc(N)n2)n1 [Compound 468, 6-(6-Amino-pyridin-2-yl)-N-isopropyl-N′-(5-trifluoromethyl-pyridin-3-yl)-[1,3,5]triazine-2,4-diamine] | > 7.00 | 6.00 to 7.00 | > 7.00
10 | c1ccc(-c2nc(Nc3ccncc3)nc(NC3COC3)n2)cc1 [Compound 236, N^2-(oxetan-3-yl)-6-phenyl-N^4-(pyridin-4-yl)-1,3,5-triazine-2,4-diamine] | 5.00 to 6.00 | 6.00 to 7.00 | 6.00 to 7.00
11 | N#Cc1cc(Nc2nc(NC3C4COCC43)nc(-c3cccc(C(F)(F)F)n3)n2)ccn1 (stereo not drawn) [Compound 505, 4-[4-(3-Oxa-bicyclo[3.1.0]hex-6-ylamino)-6-(6-trifluoromethyl-pyridin-2-yl)-[1,3,5]triazin-2-ylamino]-pyridine-2-carbonitrile] | 6.00 to 7.00 | 6.00 to 7.00 | > 7.00
12 | CC(C)Nc1nc(Nc2ccccc2Cl)nc(-c2ccccc2)n1 [Compound 162] | 5.00 to 6.00 | 6.00 to 7.00 | 5.00 to 6.00
13 | CC(C)Nc1nc(Nc2cccc(C(C)(C)O)c2)nc(-c2cccc(C(F)(F)F)n2)n1 [Compound 542, 2-{3-[4-Isopropylamino-6-(6-trifluoromethyl-pyridin-2-yl)-[1,3,5]triazin-2-ylamino]-phenyl}-propan-2-ol] | > 7.00 | 6.00 to 7.00 | > 7.00
14 | CC(CO)Nc1nc(Nc2ccccc2)nc(-c2ccccc2)n1 (stereo not drawn) [Compound 241, 2-(4-phenyl-6-(phenylamino)-1,3,5-triazin-2-ylamino)propan-1-ol] | 5.00 to 6.00 | > 7.00 | 6.00 to 7.00
15 | CC(C)Nc1nc(Nc2cccc(C#N)c2)nc(-c2ccccn2)n1 [Compound 246, 3-(4-(isopropylamino)-6-(pyridin-2-yl)-1,3,5-triazin-2-ylamino)benzonitrile] | 6.00 to 7.00 | 6.00 to 7.00 | > 7.00
16 | CC(C)Nc1nc(Nc2cccc(F)c2)nc(-c2c(F)cccc2F)n1 [Compound 473, 6-(2,6-Difluoro-phenyl)-N-(3-fluoro-phenyl)-N′-isopropyl-[1,3,5]triazine-2,4-diamine] | > 7.00 | > 7.00 | > 7.00

The remaining lines, values ahead:

Row | pIC50 [1] | pIC50 [2] | pIC50 [3] | SMILES
17 | > 7.00 | 6.00 to 7.00 | > 7.00 | CC(C)Nc1nc(Nc2ccnc(C(F)(F)F)c2)nc(-c2cccc(CO)c2)n1 [Compound 639, {3-[4-Isopropylamino-6-(2-trifluoromethyl-pyridin-4-ylamino)-[1,3,5]triazin-2-yl]-phenyl}-methanol]
18 | > 7.00 | 6.00 to 7.00 | > 7.00 | CC(C)Nc1nc(Nc2ccnc(C(F)(F)F)c2)nc(-c2cccc(O)c2F)n1 [Compound 633, 2-Fluoro-3-[4-isopropylamino-6-(2-trifluoromethyl-pyridin-4-ylamino)-[1,3,5]triazin-2-yl]-phenol]
19 | > 7.00 | 6.00 to 7.00 | > 7.00 | CC(C)Nc1nc(Nc2cc(Cl)cc(S(C)(=O)=O)c2)nc(-c2cccc(C(C)(F)F)n2)n1 [Compound 614, N2-(3-chloro-5-(methylsulfonyl)phenyl)-6-(6-(1,1-difluoroethyl)pyridin-2-yl)-N4-isopropyl-1,3,5-triazine-2,4-diamine]
20 | 6.00 to 7.00 | 6.00 to 7.00 | 6.00 to 7.00 | COc1cc(Cl)cc(-c2nc(Nc3ccnc(C(F)(F)F)c3)nc(NC(C)C)n2)c1 [Compound 655, 6-(3-chloro-5-methoxyphenyl)-N2-isopropyl-N4-(2-(trifluoromethyl)pyridin-4-yl)-1,3,5-triazine-2,4-diamine]
21 | > 7.00 | 6.00 to 7.00 | > 7.00 | CC(C)Nc1nc(Nc2ccnc(C3(C#N)CC3)c2)nc(-c2cccc(C(F)(F)F)n2)n1 [Compound 669, 1-{4-[4-Isopropylamino-6-(6-trifluoromethyl-pyridin-2-yl)-[1,3,5]triazin-2-ylamino]-pyridin-2-yl}-cyclopropanecarbonitrile]
22 | 6.00 to 7.00 | 6.00 to 7.00 | > 7.00 | OC1CCCC1Nc1nc(Nc2ccnc(C(F)(F)F)c2)nc(-c2cccc(C(F)(F)F)n2)n1 (stereo not drawn) [Compound 588, 2-((4-(6-(trifluoromethyl)pyridin-2-yl)-6-((2-(trifluoromethyl)pyridin-4-yl)amino)-1,3,5-triazin-2-yl)amino)cyclopentanol]
23 | > 7.00 | 6.00 to 7.00 | > 7.00 | CC(C)Nc1nc(Nc2cc(Cl)cc(S(C)(=O)=O)c2)nc(-c2cccc(C(F)(F)F)n2)n1 [Compound 561, N-(3-Chloro-5-methanesulfonyl-phenyl)-N′-isopropyl-6-(6-trifluoromethyl-pyridin-2-yl)-[1,3,5]triazine-2,4-diamine]
24 | > 7.00 | 6.00 to 7.00 | > 7.00 | CC(C)(C)Nc1nc(Nc2ccnc(C3(C#N)CC3)c2)nc(-c2cccc(C(F)(F)F)n2)n1 [Compound 608, 1-(4-((4-(tert-butylamino)-6-(6-(trifluoromethyl)pyridin-2-yl)-1,3,5-triazin-2-yl)amino)pyridin-2-yl)cyclopropanecarbonitrile]
25 | > 7.00 | 6.00 to 7.00 | > 7.00 | CC(C)(C)Nc1nc(Nc2ccnc(C(F)(F)F)c2)nc(-c2cccc(C(F)(F)F)n2)n1 [Compound 602, N2-(tert-butyl)-6-(6-(trifluoromethyl)pyridin-2-yl)-N4-(2-(trifluoromethyl)pyridin-4-yl)-1,3,5-triazine-2,4-diamine]
26 | 6.00 to 7.00 | 6.00 to 7.00 | > 7.00 | CC(C)CNc1nc(Nc2cccc(S(C)(=O)=O)c2)nc(-c2cccc(C(F)(F)F)n2)n1 [Compound 571, N2-isobutyl-N4-(3-(methylsulfonyl)phenyl)-6-(6-(trifluoromethyl)pyridin-2-yl)-1,3,5-triazine-2,4-diamine]
27 | > 7.00 | 6.00 to 7.00 | > 7.00 | COC1(c2cc(Nc3nc(NC(C)C)nc(-c4cccc(C(F)(F)F)n4)n3)ccn2)CC1 [Compound 559, N-Isopropyl-N′-[2-(1-methoxy-cyclopropyl)-pyridin-4-yl]-6-(6-trifluoromethyl-pyridin-2-yl)-[1,3,5]triazine-2,4-diamine]
